ChEMBL document CHEMBL4219129, “Design, synthesis and biological evaluation of spiropyrimidinetriones oxazolidinone derivatives as antibacterial agents” (2018)
Converted amounts (≈) assume the structure as drawn.

Experiments:
Assay type in all cases: functional
[1] = test system: Enterococcus faecium; assay: Antibacterial activity against vancomycin-resistant Enterococcus faecium R1
[2] = test system: Enterococcus faecium; assay: Antibacterial activity against Enterococcus faecium 575
[3] = test system: Staphylococcus aureus; assay: Antibacterial activity against PVL positive Staphylococcus aureus
[4] = test system: Staphylococcus aureus; assay: Antibacterial activity against Staphylococcus aureus ATCC 29213
[5] = test system: Staphylococcus aureus; assay: Antibacterial activity against Staphylococcus aureus FDA 209P
[6] = test system: Staphylococcus aureus; assay: Antibacterial activity against methicillin-resistant Staphylococcus aureus 562
[7] = test system: Staphylococcus aureus; assay: Antibacterial activity against methicillin-resistant Staphylococcus aureus 1201984
[8] = test system: Staphylococcus aureus; assay: Antibacterial activity against methicillin-resistant Staphylococcus aureus DB-00026
[9] = test system: Staphylococcus aureus; assay: Antibacterial activity against methicillin-resistant Staphylococcus aureus USA300 BAA-1556
[10] = test system: Staphylococcus aureus; assay: Antibacterial activity against Staphylococcus aureus Mu50 ATCC 700699
[11] = test system: Staphylococcus aureus; assay: Antibacterial activity against linezolid-resistant Staphylococcus aureus O-128
[12] = test system: Staphylococcus aureus; assay: Antibacterial activity against […] Staphylococcus aureus ATCC 13709 SMITH
[13] = test system: Staphylococcus epidermidis; assay: Antibacterial activity against Staphylococcus epidermidis ATCC 12228
[14] = test system: Staphylococcus epidermidis; assay: Antibacterial activity against methicillin-resistant Staphylococcus epidermidis ATCC 35984
[15] = test system: Staphylococcus epidermidis; assay: Antibacterial activity against linezolid-resistant Staphylococcus epidermidis 1117174
[16] = test system: Staphylococcus epidermidis; assay: Antibacterial activity against linezolid-resistant Staphylococcus epidermidis 1089191
[17] = test system: Escherichia coli; assay: Antibacterial activity against TolC-deficient Escherichia coli
[18] = test system: Escherichia coli; assay: Antibacterial activity against Escherichia coli MG1655; conditions: K-12 substr. MG1655
[19] = test system: Enterococcus faecalis; assay: Antibacterial activity against Enterococcus faecalis ATCC 51299
[20] = test system: Enterococcus faecalis; assay: Antibacterial activity against linezolid-resistant Enterococcus faecalis ATCC 29212
[21] = test system: Enterococcus faecium; assay: Antibacterial activity against Enterococcus faecium ATCC 19434
[22] = test system: Enterococcus faecium; assay: Antibacterial activity against vancomycin-resistant Enterococcus faecium 6A
[23] = test system: Enterococcus faecium; assay: Antibacterial activity against vancomycin-resistant Enterococcus faecium 03080 DS
[24] = test system: Enterococcus faecium; assay: Antibacterial activity against Enterococcus faecium ATCC 35667
[25] = test system: Enterococcus faecalis; assay: Antibacterial activity against Enterococcus faecalis ATCC 19434
[26] = test system: Enterococcus faecalis; assay: Antibacterial activity against Enterococcus faecalis ATCC 29212
[27] = test system: Enterococcus faecium; assay: Antibacterial activity against vancomycin-resistant Enterococcus faecium 134
[28] = test system: Enterococcus faecium; assay: Antibacterial activity against Enterococcus faecium 45/146
[29] = test system: Enterococcus faecium; assay: Antibacterial activity against linezolid-resistant Enterococcus faecium 303
[30] = test system: Enterococcus faecium; assay: Antibacterial activity against Enterococcus faecium NLNZ 572
[31] = test system: Enterococcus faecium; assay: Antibacterial activity against vancomycin-resistant Enterococcus faecium 31/132
[32] = test system: Enterococcus faecium; assay: Antibacterial activity against vancomycin-resistant Enterococcus faecium 32/133

Compound | MIC [1] [µg/mL] | MIC [2] [µg/mL] | MIC [3] [µg/mL] | MIC [4] [µg/mL] | MIC [5] [µg/mL] | MIC [6] [µg/mL] | MIC [8] [µg/mL] | MIC [9] [µg/mL] | MIC [11] [µg/mL] | MIC [12] [µg/mL] | MIC [13] [µg/mL] | MIC [14] [µg/mL] | MIC [15] [µg/mL] | MIC [16] [µg/mL] | MIC [17] [µg/mL] | MIC [18] [µg/mL] | MIC [19] [µg/mL] | MIC [20] [µg/mL] | MIC [21] [µg/mL] | MIC [31] [µg/mL] | further results
CC(=O)NC[C@H]1CN(c2ccc(-c3ccc4c(c3)CC3(C(=O)NC(=O)NC3=O)C3CCCCN43)c(F)c2)C(=O)O1 (stereo not given in full) | 1 (≈ 1.82 µM) | 2 (≈ 3.64 µM) | 4 (≈ 7.28 µM) | 2 (≈ 3.64 µM) | 2 (≈ 3.64 µM) | ≤ 1 | 2 (≈ 3.64 µM) | 2 (≈ 3.64 µM) | 8 (≈ 14.6 µM) | 16 (≈ 29.1 µM) | 2 (≈ 3.64 µM) | ≤ 1 | > 32 | > 32 | 4 (≈ 7.28 µM) | > 32 | 1 (≈ 1.82 µM) | 4 (≈ 7.28 µM) | 2 (≈ 3.64 µM) | 2 (≈ 3.64 µM) | MIC [7]: 2 µg/mL (≈ 3.64 µM); MIC [10]: ≤ 1 µg/mL; MIC [22]: 1 µg/mL (≈ 1.82 µM); MIC [23]: 1 µg/mL (≈ 1.82 µM); MIC [24]: 1 µg/mL (≈ 1.82 µM); MIC [25]: 2 µg/mL (≈ 3.64 µM); MIC [26]: 2 µg/mL (≈ 3.64 µM); MIC [27]: 4 µg/mL (≈ 7.28 µM); MIC [28]: 2 µg/mL (≈ 3.64 µM); MIC [29]: 16 µg/mL (≈ 29.1 µM); MIC [30]: 4 µg/mL (≈ 7.28 µM); MIC [32]: 4 µg/mL (≈ 7.28 µM)
O=C1NC(=O)C2(Cc3cc(-c4ccc(N5C[C@H](CO)OC5=O)cc4F)ccc3N3CCCCC32)C(=O)N1 (stereo not given in full) | 0.25 (≈ 0.492 µM) | 2 (≈ 3.93 µM) | 2 (≈ 3.93 µM) | 4 (≈ 7.87 µM) | 4 (≈ 7.87 µM) | 2 (≈ 3.93 µM) | 4 (≈ 7.87 µM) | 4 (≈ 7.87 µM) | 16 (≈ 31.5 µM) | 16 (≈ 31.5 µM) | 2 (≈ 3.93 µM) | ≤ 1 | 32 (≈ 62.9 µM) | > 32 | 4 (≈ 7.87 µM) | > 32 | 1 (≈ 1.97 µM) | 2 (≈ 3.93 µM) | 2 (≈ 3.93 µM) | 2 (≈ 3.93 µM) | MIC [7]: 2 µg/mL (≈ 3.93 µM); MIC [10]: 2 µg/mL (≈ 3.93 µM); MIC [22]: 1 µg/mL (≈ 1.97 µM); MIC [23]: 1 µg/mL (≈ 1.97 µM); MIC [24]: 1 µg/mL (≈ 1.97 µM); MIC [25]: 2 µg/mL (≈ 3.93 µM); MIC [26]: 2 µg/mL (≈ 3.93 µM); MIC [27]: 2 µg/mL (≈ 3.93 µM); MIC [28]: 1 µg/mL (≈ 1.97 µM); MIC [29]: 8 µg/mL (≈ 15.7 µM); MIC [30]: 4 µg/mL (≈ 7.87 µM); MIC [32]: 2 µg/mL (≈ 3.93 µM)
CC(=O)NC[C@H]1CN(c2ccc(-c3ccc4c(c3)CC3(C(=O)NC(=O)NC3=O)C3CCCN43)c(F)c2)C(=O)O1 (stereo not given in full) | 2 (≈ 3.73 µM) | 2 (≈ 3.73 µM) | 2 (≈ 3.73 µM) | 2 (≈ 3.73 µM) | 4 (≈ 7.47 µM) | 2 (≈ 3.73 µM) | 2 (≈ 3.73 µM) | 4 (≈ 7.47 µM) | 16 (≈ 29.9 µM) | 16 (≈ 29.9 µM) | 2 (≈ 3.73 µM) | ≤ 1 | 32 (≈ 59.8 µM) | > 32 | 2 (≈ 3.73 µM) | > 32 | 2 (≈ 3.73 µM) | 4 (≈ 7.47 µM) | 2 (≈ 3.73 µM) | 2 to 4 (≈ 3.73 to 7.47 µM) | MIC [7]: 4 µg/mL (≈ 7.47 µM); MIC [10]: ≤ 1 µg/mL; MIC [22]: 1 µg/mL (≈ 1.87 µM); MIC [23]: 2 µg/mL (≈ 3.73 µM); MIC [24]: 1 µg/mL (≈ 1.87 µM); MIC [25]: 2 µg/mL (≈ 3.73 µM); MIC [26]: 2 µg/mL (≈ 3.73 µM); MIC [27]: 4 µg/mL (≈ 7.47 µM); MIC [28]: 2 µg/mL (≈ 3.73 µM); MIC [29]: 16 µg/mL (≈ 29.9 µM); MIC [30]: 4 µg/mL (≈ 7.47 µM); MIC [32]: 4 µg/mL (≈ 7.47 µM)
CC(=O)NC[C@H]1CN(c2ccc(N3CCOCC3)c(F)c2)C(=O)O1 [LINEZOLID] | 4 (≈ 11.9 µM) | 2 (≈ 5.93 µM) | 0.5 to 4 (≈ 1.48 to 11.9 µM) | 2 to 4 (≈ 5.93 to 11.9 µM) | 4 to 32 (≈ 11.9 to 94.9 µM) | 2 to 4 (≈ 5.93 to 11.9 µM) | 2 to 4 (≈ 5.93 to 11.9 µM) | 2 to 4 (≈ 5.93 to 11.9 µM) | 2 to 32 (≈ 5.93 to 94.9 µM) | 2 to 32 (≈ 5.93 to 94.9 µM) | 2 to 4 (≈ 5.93 to 11.9 µM) | 2 (≈ 5.93 µM) | > 32 | > 32 | 2 to 8 (≈ 5.93 to 23.7 µM) | > 32 | – | > 32 | 2 to 4 (≈ 5.93 to 11.9 µM) | 2 (≈ 5.93 µM) | MIC [23]: 2 µg/mL (≈ 5.93 µM); MIC [24]: 0.5 µg/mL (≈ 1.48 µM); MIC [27]: 2 µg/mL (≈ 5.93 µM); MIC [29]: > 32 µg/mL
CN[C@H](CC(C)C)C(=O)N[C@H]1C(=O)N[C@@H](CC(N)=O)C(=O)N[C@H]2C(=O)N[C@H]3C(=O)N[C@H](C(=O)N[C@H](C(=O)O)c4cc(O)cc(O)c4-c4cc3ccc4O)[C@H](O)c3ccc(c(Cl)c3)Oc3cc2cc(c3O[C@@H]2O[C@H](CO)[C@@H](O)[C@H](O)[C@H]2O[C@H]2C[C@](C)(N)[C@H](O)[C@H](C)O2)Oc2ccc(cc2Cl)[C@H]1O [VANCOMYCIN] | – | – | – | – | – | – | – | – | – | – | – | – | – | – | – | – | > 32 | 2 (≈ 1.38 µM) | – | > 32 | MIC [26]: 2 µg/mL (≈ 1.38 µM)
COC(=O)NC[C@H]1CN(c2ccc(-c3ccc4c(c3)CC3(C(=O)NC(=O)NC3=O)C3CCCN43)c(F)c2)C(=O)O1 (stereo not given in full) | 8 (≈ 14.5 µM) | 16 (≈ 29 µM) | 2 (≈ 3.63 µM) | 2 (≈ 3.63 µM) | 4 (≈ 7.25 µM) | 2 (≈ 3.63 µM) | 4 (≈ 7.25 µM) | 4 (≈ 7.25 µM) | 16 (≈ 29 µM) | > 32 | 2 (≈ 3.63 µM) | 2 (≈ 3.63 µM) | 32 (≈ 58 µM) | 32 (≈ 58 µM) | 4 (≈ 7.25 µM) | > 32 | 8 (≈ 14.5 µM) | 16 (≈ 29 µM) | 16 (≈ 29 µM) | 16 (≈ 29 µM) | MIC [7]: 2 µg/mL (≈ 3.63 µM); MIC [10]: 2 µg/mL (≈ 3.63 µM); MIC [22]: 8 µg/mL (≈ 14.5 µM); MIC [23]: 8 µg/mL (≈ 14.5 µM); MIC [24]: 8 µg/mL (≈ 14.5 µM); MIC [25]: 16 µg/mL (≈ 29 µM); MIC [26]: 8 µg/mL (≈ 14.5 µM); MIC [27]: 16 µg/mL (≈ 29 µM); MIC [28]: 8 µg/mL (≈ 14.5 µM); MIC [29]: > 32 µg/mL; MIC [30]: 32 µg/mL (≈ 58 µM); MIC [32]: 16 µg/mL (≈ 29 µM)
